Source: patent US8519143B2, “Derivatives of (bridged piperazinyl)-1-alkanone and use thereof as p75 inhibitors” (Sanofi, priority 2008, dated 2013)

Tests used:
p75^NTR receptor [1] = molecular target: T1, p75^NTR receptor (Homo sapiens, UniProt P08138); experiment: p75NTR receptor dimerisation independently of its ligand (soluble p75NTR-alkaline phosphatase binding to SK-N-BE Bep 75 cells); design: the whole form of the human p75^NTR receptor; expressed in transfected cells; host or cells: SK-N-BE Bep 75 cells (membrane receptor); HEK293 cells transfected for 48 h (secreted soluble fusion)
T1 sequence (P08138 29-427): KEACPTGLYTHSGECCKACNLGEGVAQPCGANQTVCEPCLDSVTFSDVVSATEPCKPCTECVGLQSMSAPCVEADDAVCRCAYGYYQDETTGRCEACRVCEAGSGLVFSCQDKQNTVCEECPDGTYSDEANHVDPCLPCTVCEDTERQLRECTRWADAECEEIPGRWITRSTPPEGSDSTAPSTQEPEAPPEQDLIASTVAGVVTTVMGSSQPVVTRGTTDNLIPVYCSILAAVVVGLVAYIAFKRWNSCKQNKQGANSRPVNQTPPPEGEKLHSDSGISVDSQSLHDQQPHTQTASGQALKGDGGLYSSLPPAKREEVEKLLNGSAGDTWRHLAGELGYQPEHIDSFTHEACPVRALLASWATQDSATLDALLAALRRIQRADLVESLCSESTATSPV
Description: (§1) The parent strain SK-N-BE (human neuroblastoma) and the clone Bep 75, stably expressing the whole form of the human p75^NTR receptor (SK-N-BE Bep 75), are cultured conventionally in an RPMI culture medium containing FCS (5%), sodium pyruvate (1 mM) and glutamine (4 mM). For the SK-N-BE Bep 75 cells, hygromycin (200 μl/20 ml of medium) is added as selection agent.
Study of p75^NTR receptor dimerisation independently of its ligand The study of p75^NTR receptor dimerisation is carried out on a cell suspension of the SK-N-BE Bep 75 strain. The cells (2.5×10^4 cells/well) are placed in wells (96-well plate) for 24 h, and then preincubated for 1 h at 37° C. in the presence or absence of the compounds according to the invention. Supernatant, derived from culturing HEK293 human cells of renal origin expressing, after transfection for 48 h, and secreting a soluble form of the p75^NTR receptor (extracellular part of the receptor) coupled to an alkaline phosphatase, is then added at the final concentration of 10 nM. The quantification of the specific binding of the soluble p75^NTR receptor to the receptor present on SK-N-BE Bep 75 cells is determined by measuring the enzymatic alkaline phosphatase activity after incubation of the cells for 1 hour at 37° C. in the presence of the supernatant. After filtration and transfer of the filters into 24-well plates, the alkaline phosphatase activity is determined by adding CDP-Star chemiluminescent substrate (ready-to-use, Roche).

[2] = tested on: human neuroblastoma strains SH-SY-5Y and SK-N-BE Bep 75; experiment: Measurement of apoptosis (NGF-induced, cell death detection ELISA); type: cell-based; conditions: SH-SY5Y, NGF 10 ng/ml, 48 h (SH-SY-5Y) or 24 h (SK-N-BE Bep 75), cell strain not given, read-out: IC50 of NGF-induced apoptosis inhibition
Description: The SH-SY-5Y strain (human neuroblastoma) is cultured conventionally in a DMEM culture medium (Dulbecco's Modified Eagle's Medium) (Gibco BRL, France) containing FCS (5%) (foetal calf serum) (Boehringer Mannheim, Germany), sodium pyruvate (1 mM) and glutamine (4 mM) in collagen-coated culture flasks (Becton Dickinson, France).
as §1
The cells (human neuroblastoma strains SH-SY-5Y and SK-N-BE Bep 75) are placed in Petri dishes 35 mm in diameter (Biocoat collagen I (10^5 cells/well)) in an appropriate culture medium containing 5% FCS for 24 h. The culture medium is then removed, the cells are rinsed with PBS (Dulbecco's Phosphate buffered saline), and then either fresh medium containing 5% FCS, or medium containing NGF (at the concentration of 10 ng/ml) or beta-amyloid peptide (Aβ1-40) (at the concentration of 10 μM) is added, in the presence or absence of the compounds according to the invention. The degrees of apoptosis are measured 48 hours after the treatments in the case of the SH-SY-5Y strain, and 24 hours after the treatments in the case of the SK-N-BE Bep 75 strain, by quantifying the cytoplasmic histones associated with DNA fragments (cell death detection ELISA, Boehringer Mannheim, Germany). The degrees of apoptosis are expressed as quantity of oligonucleosomes/10^5 cells. Each value corresponds to the mean of 9 experimental points distributed over 3 independent experiments.

p75^NTR receptor [3] = molecular target: T1, p75^NTR receptor; experiment: Binding of 125I NGF to the p75NTR receptor on SK-N-BE Bep 75 cell suspension; design: the whole form of the human p75^NTR receptor; expressed in transfected cells; host or cells: SK-N-BE (human neuroblastoma), clone Bep 75, hygromycin selection
Description: as §1
Study of the binding of ^125I NGF to the p75^NTR receptor The study of NGF binding (nerve growth factor radiolabelled with iodine-125, Amersham—2000 Ci/mmol) is carried out on a cell suspension of the SK-N-BE Bep 75 strain in accordance with the method described by Weskamp (Neuron, 1991, 6, 649-663). The non-specific binding is determined by measuring the total binding after preincubation for one hour with cells at 37° C. in the presence of non-radiolabelled NGF (1 μM). The specific binding is calculated by the difference between the total binding measurement and the non-specific binding measurement. The competition experiments are carried out using an iodinated NGF (^125I NGF) concentration of 0.3 nM.

SMILES | IC50 (p75^NTR receptor [1]) [nM] | IC50 [2] [nM] | IC50 (p75^NTR receptor [3]) [nM]
O=C(CN1CC2CCC(C1)N2c1ccc(C(F)(F)F)cn1)N1CC=C(c2cccc(C(F)(F)F)c2)CC1 [Compound No. 1, 1-[4-(3-trifluoromethylphenyl)-3,6-dihydro-2H-pyridin-1-yl]-2-[8-(5-trifluoromethylpyridin-2-yl)-3,8-diazabicyclo[3.2.1]oct-3-yl]ethanone] | 23.4 | 1.33 | 1.35
O=C(CN1CC2CCC(C1)N2c1ncccn1)N1CC=C(c2ccc(Cl)cc2)CC1 [Compound No. 2, 1-[4-(4-chlorophenyl)-3,6,-dihydro-2H-pyridin-1-yl]-2-(8-pyrimidin-2-yl-3,8-diazabicyclo[3.2.1]oct-3-yl)ethanone] |  |  | 0.18
O=C(CN1C2CCC1CN(c1cnccn1)C2)N1CC=C(c2cccc(C(F)(F)F)c2)CC1 [Compound No. 3, 2-(3-pyrazin-2-yl-3,8-diazabicyclo[3.2.1]oct-8-yl)-1-[4-(3-trifluoromethylphenyl)-3,6-dihyro-2H-pyridin-1-yl]ethanone] | 0.05 | 0.067 | 
O=C(CN1CC2CCC(C1)N2c1ccc(C(F)(F)F)cn1)N1CC=C(c2ccc(Cl)cc2)CC1 [Compound No. 7, 1-[4-(4-chlorophenyl)-3,6-dihydro-2H-pyridin-1-yl]-2-[8-(5-trifluoromethylpyridin-2-yl)-3,8-diazabicyclo[3.2.1]oct-3-yl]ethanone] |  |  | 0.29
O=C(CN1CC2CCC(C1)N2c1ccc(C(F)(F)F)cn1)N1CC=C(c2ccc(Cl)c(C(F)(F)F)c2)CC1 [Compound No. 8, 1-[4-(4-chloro-3-trifluoromethylphenyl)-3,6-dihydro-2H-pyridin-1-yl]-2-[8-(5-trifluoromethylpyridin-2-yl)-3,8-diazabicyclo[3.2.1]oct-3-yl]ethanone] | 0.68 | 2.24 | 
O=C(CN1CC2CCC(C1)N2c1ncc(F)cn1)N1CC=C(c2ccc(Cl)c(C(F)(F)F)c2)CC1 [Compound No. 11, 1-[4-(4-chloro-3-trifluoromethylphenyl)-3,6-dihydro-2H-pyridin-1-yl]-2-[8-(5-fluoropyrimidin-2-yl)-3,8-diazabicyclo[3.2.1]oct-3-yl]ethanone] | 0.2 | 0.21 | 0.98
O=C(CN1CC2CCC(C1)N2c1cccnc1)N1CC=C(c2ccc(Cl)c(C(F)(F)F)c2)CC1 [Compound No. 27, 1-[4-(4-chloro-3-trifluoromethylphenyl)-3,6-dihydro-2H-pyridin-1-yl]-2-(8-pyridin-3-yl-3,8-diazabicyclo[3.2.1]oct-3-yl)ethanone] | 0.23 | 0.088 | 
COC(=O)c1ccc(N2C3CCC2CN(CC(=O)N2CC=C(c4ccc(Cl)c(C(F)(F)F)c4)CC2)C3)nc1 [Compound No. 28, 6-(3-{2-[4-(4-chloro-3-trifluoromethylphenyl)-3,6-dihydro-2H-pyridin-1-yl]-2-oxoethyl}-3,8-diazabicyclo[3.2.1]oct-8-yl)nicotinic acid methyl ester] | 9.84 |  | 
O=C(O)c1ccc(N2C3CCC2CN(CC(=O)N2CC=C(c4ccc(Cl)c(C(F)(F)F)c4)CC2)C3)nc1 [Compound No. 29, 6-(3-{2-[4-(4-chloro-3-trifluoromethylphenyl)-3,6-dihydro-2H-pyridin-1-yl]-2-oxoethyl}-3,8-diazabicyclo[3.2.1]oct-8-yl)nicotinic acid] | 0.14 | 0.22 | 
COC(=O)c1cccc(C2=CCCN(C(=O)CN3CC4CCC(C3)N4c3ncc(F)cn3)C2)c1 [Compound No. 53, 3-(1-{2-[8-(5-fluoropyrimidin-2-yl)-3,8-diazabicyclo[3.2.1]oct-3-yl]acetyl}-1,2,5,6-tetrahydropyridin-3-yl)benzoic acid methyl ester] | 2.08 |  | 
